Experimental data published in ChEMBL document CHEMBL5724558, “Image-based profiling of drug vulnerabilities in CRC organoids” (2024).
Several values for one entry are separate records, joined by “and”; a condition that tells them apart may be missing. Equal entries are not always repeated.

What was measured:
Assay type in all cases: functional, Homo sapiens
Set-up in all cases: dose or concentration left out as unconfirmed
Colon cancer organoid [1] = assay: Image-based profiling of donated chemical probes and chemogenomic kinase set in O09 CRC organoid. Image analysis is performed on the sum area metric, and the data were normalized to the DMSO control. After imaging the organoid viability is measured using the OneGloEX Luciferase Assay System. The normalized viability data and sum area are reported.
Colon cancer organoid [2] = assay: Image-based profiling of donated chemical probes and chemogenomic kinase set in O06 CRC organoid. Image analysis is performed on the sum area metric, and the data were normalized to the DMSO control. After imaging the organoid viability is measured using the OneGloEX Luciferase Assay System. The normalized viability data and sum area are reported.
Colon cancer organoid [3] = assay: Image-based profiling of donated chemical probes and chemogenomic kinase set in O21 CRC organoid. Image analysis is performed on the sum area metric, and the data were normalized to the DMSO control. After imaging the organoid viability is measured using the OneGloEX Luciferase Assay System. The normalized viability data and sum area are reported.

Compound | Cell Viability (Colon cancer organoid [1]; Replication number 1) | Cell Viability (Colon cancer organoid [1]; Replication number 2) | Cell Viability (Colon cancer organoid [2]; Replication number 1) | Cell Viability (Colon cancer organoid [2]; Replication number 2) | Cell Viability (Colon cancer organoid [3]; Replication number 1) | Cell Viability (Colon cancer organoid [3]; Replication number 2)
CCOc1cc2ncc(C#N)c(Nc3ccc(OCc4cccc(F)c4)c(Cl)c3)c2cc1NC(=O)/C=C/CN(C)C [HKI-357] | 14.2588% and 15.3343% | 12.8508% and 14.4694% | 2.387% and 8.346% | 3.908% and 9.337% | 27.4097% and 41.0314% | 48.8208% and 68.5139%
Cc1cc(F)c(C(=O)Nc2cccc(-c3nncn3C(C)C)n2)cc1-n1cnc(C2CC2)c1 [SELONSERTIB] | 115.111% and 84.0268% | 104.846% and 82.0651% | 102.175% and 96.1469% | 88.4921% and 93.9846% | 96.1672% and 86.9686% | 76.8515% and 83.4833%
Cc1cc(=O)n(C)c2cc(N3C(=O)CC[C@H](NS(=O)(=O)CC(C)C)[C@H]3c3ccc(Cl)cc3)ccc12 | 117.261% and 101.082% | 140.716% and 110.041% | 144.152% and 97.8523% | 176.827% and 107.063% | 117.189% and 110.516% | 129.923% and 112.232%
CN1CCN(c2ccnc(NCCc3ccccc3)n2)CC1 [TP-040n] | 119.963% and 93.2958% | 137.241% and 93.2958% | 105.696% and 108.533% | 89.6424% and 87.2137% | 124.161% and 101.443% | 125.774% and 83.8743%
CC(C)Oc1ccc(-c2c[nH]cc2CN(C)CCN)cc1 | 64.4727% and 62.1329% | 85.7978% and 86.9496% | 21.9267% and 37.2081% | 18.5621% and 35.8471% | 91.7863% and 65.8393% | 93.2232% and 70.8831%
CCCS(=O)(=O)c1cc(NC2CC2)nc(-c2ccc3c(ccn3C3CC(C)(C)NC(C)(C)C3)c2)n1 | 103.467% and 88.0989% | 115.748% and 108.331% | 40.3908% and 48.3221% | 87.7215% and 108.975% | 82.8925% and 103.462% | 85.2127% and 87.5298%
Cc1c(NC(=O)c2ccc(C(C)(C)C)cc2)cccc1-c1cn(C)c(=O)c(Nc2ccc(C(=O)N3CCOCC3)cc2)n1 | 87.7094% and 99.5999% | 109.316% and 107.058% | 119.85% and 118.543% | 84.412% and 97.7895% | 86.5232% and 101.491% | 97.7388% and 99.4222%
COc1ccccc1-c1cc(Nc2cccc(CS(N)(=O)=O)c2)ncn1 | 75.7277% and 70.3132% | 83.1557% and 105.011% | 93.0282% and 99.0402% | 104.398% and 112.494% | 89.4274% and 95.331% | 104.034% and 107.665%
Cc1nnc2c3ccccc3c(N[C@@H](C)[C@H](c3ccccc3)N(C)C)nn12 | 148.648% and 110.587% | 133.595% and 98.3529% | 129.952% and 136.027% | 163.32% and 118.295% | 132.945% and 134.618% | 79.559% and 84.8449%
O=C(O)c1ccc(-c2coc3ncc(-c4ccccc4)cc23)cc1Cl | 308.758% and 113.836% | 206.023% and 93.0484% | 151.185% and 107.979% | 124.809% and 78.3539% | 190.076% and 113.91% | 188.696% and 75.9402%
Cl.Cl.Cl.c1ccc(N2CCN(Cc3nc4ccccc4[nH]3)CC2)nc1 | 118.127% and 116.353% | 87.0048% and 88.7915% | 75.342% and 94.3794% | 106.955% and 116.079% | 123.058% and 103.622% | 81.1139% and 93.8775%
CS(=O)(=O)N1CCN(Cc2cc3nc(-c4cccc5[nH]ncc45)nc(N4CCOCC4)c3s2)CC1 [PICTILISIB] | 49.7053% and 32.4139% | 55.1776% and 34.8237% | 32.227% and 73.4455% | 23.961% and 57.7892% | 58.3035% and 68.0139% | 64.7873% and 89.8165%
CC(C)Oc1ccc(-c2c[nH]cc2CN(C)CCO)cc1 | 133.832% and 103.4% | 212.72% and 118.594% | 142.087% and 115.973% | 131.014% and 107.302% | 96.8467% and 122.861% | 101.748% and 92.8998%
Cc1cnc(Nc2ccc(F)cc2Cl)nc1-c1c[nH]c(C(=O)N[C@H](CO)c2cccc(Cl)c2)c1 | 6.582% and 13.6138% | – | 3.326% and 7.634% | – | 28.1046% and 23.9721% | 23.785% and 21.0148%
CNCCN1CCC(OCc2ccccc2)CC1 | 67.0161% and 91.8083% | 91.8334% and 102.344% | 119.99% and 102.443% | 115.41% and 100.611% | 118.771% and 101.11% | 99.3774% and 100.418%
Cn1nc(C(=O)NCc2ccc(C(=O)O)cc2)cc1-c1ccc2[nH]ccc2c1 [BI 4395] | 118.116% and 98.6727% | 113.973% and 124.717% | 93.2096% and 84.0749% | 51.0154% and 42.4045% | 90.5249% and 84.9935% | 78.9736% and 83.6735%
C=CC(=O)Nc1ccc2[nH]c(=O)n(C3CCN(Cc4ccc(-c5ccc6c(c5)NC(=O)CO6)cc4)CC3)c2c1 [RL2578] | 79.7893% and 107.853% | 131.51% and 111.42% | 82.8871% and 90.6073% | 145.126% and 114.128% | 100.847% and 118.952% | 88.0648% and 119.816%
CC(=O)Nc1c(F)cc(C(=O)N[C@H]2CC[C@H](O)CC2)cc1O[C@@H](C)c1ccccc1 [GSK046] | 43.6665% and 86.4699% | 69.7579% and 96.7486% | 114.325% and 118.785% | 117.277% and 127.102% | 120.66% and 109.131% | 123.541% and 110.129%
CCOc1cn(-c2ccc(F)cc2C)nc1C(=O)Nc1ccc(Oc2ccnc3cc(OC)c(OC)cc23)c(F)c1 | 106.171% and 88.0162% and 65.7353% and 75.3% | 96.6425% [middle of 4 runs] | 102.988% and 123.299% and 120.024% and 109.723% | 127.856% and 122.776% and 99.2168% and 90.0771% | 103.157% and 102.021% and 78.4654% and 79.1638% | 106.966% and 96.7254% and 100.887% and 106.513%
CCN(C(=O)CO)[C@H]1CN(/C(=N\C#N)Nc2cccc(OC(F)F)c2)N=C1c1ccc(Cl)c(Cl)c1 | 95.5807% and 90.881% | 163.22% and 117.738% | 122.514% and 121.772% | 131.133% and 123.792% | 56.7523% and 64.6636% | 98.5958% and 108.473%
N#CN1CC[C@H](C(=O)Nc2nc3c(s2)CN(C(=O)CN=[N+]=[N-])CC3)C1 [8RK64] | 73.5983% and 85.3445% | 74.3628% and 83.6638% | 79.1245% and 96.1943% | 91.4374% and 108.602% | 96.0935% and 89.4871% | 85.4285% and 89.7349%
CCCCN(Cc1ccccc1)C(=O)c1ccc(S(=O)(=O)Nc2ccccc2)cc1 | 116.29% and 115.073% | 99.5038% and 96.018% | 128.543% and 118.777% | 114.906% and 147.848% | 85.4191% and 92.3751% | 113.731% and 107.676%
